Experimental data from patent publication US8674113B2, “Compounds” (Boehringer Ingelheim International GmbH, priority 2010, dated 2014).
Read-outs that look alike come from different tables or passages of the source.

Assays:
[1] = biological target: recombinant human mPGES-1 (Homo sapiens (Human), UniProt O14684); experiment: mPGES-1 enzyme assay (HTRF detection of PGE2); assay type: biochemical
Procedure, shortened: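 Microsomes from E. coli expressing recombinant human mPGES-1 (~0.5 μg protein/well) in 0.1 M phosphate pH 7.4 with 2.5 mM GSH, pre-incubated with compound 25 min at room temperature. PGH2 (2 μM final) added, reaction stopped with FeCl2 after 60 s; PGE2 quantified by HTRF (665/620 ratio) against a calibration curve, IC50 by nonlinear regression after background subtraction.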

mPGES-1 in A549 cells = mPGES-1 in A549 cells (Homo sapiens (Human), UniProt O14684); experiment: A549 cell-based assay (PGE2 formation, 50% human serum)
Procedure, shortened: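 A549 cells in F-12K with 50% human serum were stimulated 20-24 h with 5 ng/ml IL-1β and 10 nM arachidonic acid in presence of compound or vehicle. PGE2 in the cell-free medium was measured by HTRF, normalised to vehicle (100%). IC50 from 6-8 point titrations.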

[2] = recombinant human mPGES-1 microsomes, PGH2 2 μM, 60 seconds, read-out: mPGES-1 inhibitory effect IC50 in the enzyme assay
[3] = IL-1β 5 ng/ml, 10 nM arachidonic acid, 20-24 h, read-out: mPGES-1 inhibitory effect IC50 in the cell assay
[4] = Table C comparison of selected benzimidazoles, read-out: Enzym IC50
[5] = Table C comparison of selected benzimidazoles, read-out: Cell IC50

Chain of mPGES-1 in A549 cells (O14684 whole entry): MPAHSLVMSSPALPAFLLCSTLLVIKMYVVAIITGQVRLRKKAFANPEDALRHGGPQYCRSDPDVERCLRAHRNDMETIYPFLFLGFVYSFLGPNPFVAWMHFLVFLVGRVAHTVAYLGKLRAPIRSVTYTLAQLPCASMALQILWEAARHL
Chain of recombinant human mPGES-1 (O14684 whole entry): as above

Row | IC50 [1, 2] | IC50 (mPGES-1 in A549 cells; [3]) | Structure (SMILES) | IC50 [1, 4] | IC50 (mPGES-1 in A549 cells; [5])
1 | 1.9 nM | 3.5 nM | Cn1c(Nc2c(Cl)ccc(CNC(=O)C(C)(C)C(F)(F)F)c2Cl)nc2cc(C(=O)NC3CC(F)(F)C3)c(N3CCC(C(F)(F)F)CC3)cc21 [Example 257] | – | –
2 | 2.2 nM | 4 nM | Cn1c(Nc2c(Cl)ccc(CNC(=O)[C@@](C)(O)C(F)(F)F)c2Cl)nc2cc(C(=O)NC3CC(F)(F)C3)c(N3CCC(C(F)(F)F)CC3)cc21 [Example 258] | – | –
3 | 4.1 nM | 2 nM | Cn1c(Nc2c(Cl)ccc(CNC(=O)[C@](C)(O)C(F)(F)F)c2Cl)nc2cc(C(=O)NC3CC(F)(F)C3)c(N3CCC(C(F)(F)F)CC3)cc21 [Example 259] | – | –
4 | 4 nM | 2 nM | Cn1c(Nc2c(Cl)ccc(CNC(=O)C(C)(C)F)c2Cl)nc2cc(C(=O)NCCC(F)(F)F)c(N3CCC(C(F)(F)F)CC3)cc21 [Example 260] | – | –
5 | 2.9 nM | 1.6 nM | Cn1c(Nc2c(Cl)ccc(CNC(=O)C(C)(C)C(F)(F)F)c2Cl)nc2cc(C(=O)NCCC(F)(F)F)c(N3CCC(C(F)(F)F)CC3)cc21 [Example 261] | – | –

Further lines, the molecule ahead of its results:

Row | Structure (SMILES) | IC50 [1, 2] | IC50 (mPGES-1 in A549 cells; [3]) | IC50 [1, 4] | IC50 (mPGES-1 in A549 cells; [5])
6 | Cn1c(Nc2c(Cl)ccc(CNC(=O)C(C)(C)C)c2Cl)nc2cc(C(=O)Nc3cccc(C(F)(F)F)n3)c(N3CC[C@@H](F)C3)cc21 [Example 245] | 3.8 nM | 2.4 nM | – | –
7 | Cn1c(Nc2c(Cl)ccc(CNC(=O)C(C)(C)C)c2Cl)nc2cc(C(=O)Nc3ccc(F)c(Cl)c3)c(N3CC[C@@H](F)C3)cc21 [Example 246] | 2.9 nM | 1.5 nM | – | –
8 | Cn1c(Nc2c(Cl)ccc(CNC(=O)[C@@](C)(O)C(F)(F)F)c2Cl)nc2cc(C(=O)Nc3ccc(F)c(Cl)c3)c(N3CC[C@@H](F)C3)cc21 [Example 247] | 3 nM | 3 nM | – | –
9 | Cn1c(Nc2c(Cl)ccc(CNC(=O)[C@](C)(O)C(F)(F)F)c2Cl)nc2cc(C(=O)Nc3ccc(F)c(Cl)c3)c(N3CC[C@@H](F)C3)cc21 [Example 248] | 6.7 nM | 6 nM | – | –
10 | Cn1c(Nc2c(Cl)ccc(CNC(=O)C(C)(C)F)c2Cl)nc2cc(C(=O)N[C@H]3CC[C@H](C(F)(F)F)CC3)c(N3CCC(C(F)(F)F)CC3)cc21 [Example 249] | 4.2 nM | 6 nM | – | –
11 | Cn1c(Nc2c(Cl)ccc(CNC(=O)C(C)(C)C(F)(F)F)c2Cl)nc2cc(C(=O)N[C@H]3CC[C@H](C(F)(F)F)CC3)c(N3CCC(C(F)(F)F)CC3)cc21 [Example 250] | 1.7 nM | 1 nM | – | –
12 | Cn1c(Nc2c(Cl)ccc(CNC(=O)[C@@](C)(O)C(F)(F)F)c2Cl)nc2cc(C(=O)N[C@H]3CC[C@H](C(F)(F)F)CC3)c(N3CCC(C(F)(F)F)CC3)cc21 [Example 251] | 3.9 nM | 1 nM | – | –
13 | Cn1c(Nc2c(Cl)ccc(CNC(=O)[C@](C)(O)C(F)(F)F)c2Cl)nc2cc(C(=O)N[C@H]3CC[C@H](C(F)(F)F)CC3)c(N3CCC(C(F)(F)F)CC3)cc21 [Example 252] | 2.9 nM | 1.4 nM | – | –
14 | Cn1c(Nc2c(Cl)ccc(CNC(=O)C(C)(C)F)c2Cl)nc2cc(C(=O)N[C@H]3CC[C@@H](C(F)(F)F)CC3)c(N3CCC(C(F)(F)F)CC3)cc21 [Example 253] | 5.7 nM | 2.4 nM | – | –
15 | Cn1c(Nc2c(Cl)ccc(CNC(=O)C(C)(C)C(F)(F)F)c2Cl)nc2cc(C(=O)N[C@H]3CC[C@@H](C(F)(F)F)CC3)c(N3CCC(C(F)(F)F)CC3)cc21 [Example 254] | 3.1 nM | 1 nM | – | –
16 | Cn1c(Nc2c(Cl)ccc(CNC(=O)[C@](C)(O)C(F)(F)F)c2Cl)nc2cc(C(=O)N[C@H]3CC[C@@H](C(F)(F)F)CC3)c(N3CCC(C(F)(F)F)CC3)cc21 [Example 255] | 4.3 nM | 4 nM | – | –
17 | Cn1c(Nc2c(Cl)ccc(CNC(=O)C(C)(C)F)c2Cl)nc2cc(C(=O)NC3CC(F)(F)C3)c(N3CCC(C(F)(F)F)CC3)cc21 [Example 256] | 3.9 nM | 1 nM | – | –
18 | Cn1c(Nc2cc(CNC(=O)C(C)(C)C)ccc2Cl)nc2cc(C(=O)Nc3ccc(Br)cc3)c(OCC(F)F)cc21 [[drawing 48] of WO 2010/100249, reference compound] | – | – | 3 nM | 10 nM
19 | Cn1c(Nc2cc(CNC(=O)C(C)(C)C)ccc2Cl)nc2cc(C(=O)NCC3CC3)c(OCC(F)F)cc21 [[drawing 52] of WO 2010/100249, reference compound] | – | – | 2 nM | > 200 nM
